Measurements reported in US20210386668A1, “Cyclodextrin for use in the treatment and prevention of late phase bronchoconstriction in allergen-induced asthma” (Universite de Liege, priority 2020, published 2021).

Test system: BALB/c mice, house dust mite (HDM)-induced inflammation and AHR
Type: in vivo
Description: The impact of HPBCD on asthma-associated inflammation and bronchial hyperresponsiveness was investigated in a mouse model of airway inflammation and hyperresponsiveness.
Six to seven mice per group were tested. Two-tailed Mann-Whitney test were performed with p-values of *P<0.05, **P<0.01 in two independent experiments.
Two intranasal instillations of house dust mite were performed on days 0 and 7 to induce the migration of specific memory CD4+ T-cells into lung parenchyma, followed by a challenge instillation on day 14. […] The last house dust mite instillation was preceded by two days of HPBCD or PBS inhalations and followed by three inhalations until sacrifice (FIG. 1A). […] Airway responsiveness was evaluated by exposing animals to increasing doses of inhaled methacholine and by measuring Newtonian resistances representing the resistance of central or conducting airways. […] The bronchoalveolar lavage fluid (BALF) was then recovered and analyzed for cell content. […] The effect of HPBCD inhalation on T-cell numbers in lung parenchyma was investigated by flow cytometry.
Males BALB/c mice of 6 to 8 weeks old were purchased from Janvier Labs (Saint-Berthevin, France). All mice were bred and housed in University facilities. All experiences and protocols were previously approved by local ethic (animal care and use) committee from the University of Liege.
Mice were lightly isoflurane-anesthetized and received an intra-nasal (i.n) instillation of HDM extract (100 μg; 50 μl) in endotoxin-free saline on days 0, 7 and 14. Mice were subjected to inhalation (generated by ultrasonic nebulizer (Devilbiss 2000)) of HPBCD 10 mM or endotoxin-free saline for 40 minutes between day 12 and 16. On day 14, they received the inhalation 1 h before the last i.n. instillation of HDM. After measurement of bronchial responsiveness using the FlexiVent System, mice were sacrificed on day 17. Mice submitted to ovalbumin as allergen were i.p injected with 10 mcg ovalbumin grade 5 and exposed to ovalbumin grade 3 by inhalation between day 21 and 25. Mice were treated with HPBCD 10 mM given by inhalation between day 19 and 25. After measurement of bronchial responsiveness using the FlexiVent System, mice were sacrificed on day 26.
Mice were anesthetized by intraperitoneal injection with a mixture of ketamine (10 mg/ml, Merial, Brussel, Belgium) and xylazine (1 mg/ml, VMD, Arendonk, Belgium). A tracheotomy was performed by insertion of a 20 gauge polyethylene catheter into the trachea. Mice were ventilated with a flexiVent small animal Ventilator® (SCIREQ, Montreal, Canada) as previously described (18). Respiratory parameters following methacholine challenge (3, 6, and 12 gr/l (or 24 gr/l)) were evaluated using a 3 sec broadband signal to measure input impedance from 1 to 20.5 Hz and to calculate constant-phase model parameters (Quick-prime 3). Newtonian resistance (Rn) was the main parameter measured during the challenge.
Mice were sacrificed and a bronchoalveolar lavage was performed using PBS-EDTA 0.05 mM (Calbiochem, Darmstadt, Germany). Cells were recovered by gentle manual aspiration. After centrifugation of bronchoalveolar fluid (BALF) (1200 rpm; 10 min; 4° C.), the cell pellet was resuspended in 0.5 ml PBS-EDTA 0.05 mM. The differential cell counts were performed on cytocentrifuged preparations (Cytospin) after Diff-Quick (Dade, Belgium) staining.
Left lung was excised and snap frozen in liquid nitrogen. Right lung was infused with 4% paraformaldehyde, embedded in paraffin and used for histology. Sections of 5 μm thickness were cut off from paraffin and were stained with haematoxylin-eosin to estimate the extent of inflammation (18) and with Alcian blue (mucin stain).
To obtain single-lung-cell suspensions, lungs were perfused with 10 ml HBSS through the right ventricle, razor-cut into small pieces and digested for 1 hour at 37° C. in 1 mg/ml collagenase A (Roche) and 0.05 mg/ml DNasel (Roche) in HBSS. […]

CC(O)COC[C@H]1O[C@@H]2O[C@H]3[C@H](O)[C@@H](O)[C@@H](O[C@H]4[C@H](O)[C@@H](O)[C@@H](O[C@H]5[C@H](O)[C@@H](O)[C@@H](O[C@H]6[C@H](O)[C@@H](O)[C@@H](O[C@H]7[C@H](O)[C@@H](O)[C@@H](O[C@H]8[C@H](O)[C@@H](O)[C@@H](O[C@H]1[C@H](O)[C@H]2O)O[C@@H]8COCC(C)O)O[C@@H]7COCC(C)O)O[C@@H]6COCC(C)O)O[C@@H]5COCC(C)O)O[C@@H]4COCC(C)O)O[C@@H]3COCC(C)O (stereo partly drawn) [HPBCD, 2-hydroxypropyl-beta-cyclodextrin]
airway responsiveness to methacholine (Newtonian resistance) (HPBCD 10 mM inhalation vs PBS, HDM-challenged mice, FIG. 1B): significantly decreased | extent of inflammation around the bronchi (HPBCD vs placebo, FIG. 1D): reduced | number of Alcian blue positive mucus producing epithelial cells (HPBCD vs placebo, FIG. 1E): reduced | eosinophilic inflammation in BALF (HPBCD-exposed vs placebo, FIG. 1C): significantly decreased | number of TH2 cells (CD3+CD4+T1ST2+ ICOS+) in lung parenchyma (mouse, in vivo): nor the number of TH2 cells (CD3+CD4+T1ST2+ ICOS+) were modified | number of total CD4+ T-cells (CD3+CD4+) in lung parenchyma (mouse, in vivo): Neither the number of total CD4+ T-cells (CD3+CD4+) nor the number of TH2 cells (CD3+CD4+T1ST2+ ICOS+) were modified
